Reference: patent publication US6783949B1, “Processes for determining whether a test substance contains lipases or lipase inhibitors” (Aventis Pharma Deutschland GmbH, priority 1999, dated 2004)

Molecular target: T1, HSL (Rattus norvegicus, UniProt P15304)
T1 construct: The partially purified HSL can be stored at −70° C. for 4 to 6 weeks; from tissue; host or cells: rat epididymal fat cells (male Wistar rats)
T1 sequence (P15304 1-768 isoform P15304-2): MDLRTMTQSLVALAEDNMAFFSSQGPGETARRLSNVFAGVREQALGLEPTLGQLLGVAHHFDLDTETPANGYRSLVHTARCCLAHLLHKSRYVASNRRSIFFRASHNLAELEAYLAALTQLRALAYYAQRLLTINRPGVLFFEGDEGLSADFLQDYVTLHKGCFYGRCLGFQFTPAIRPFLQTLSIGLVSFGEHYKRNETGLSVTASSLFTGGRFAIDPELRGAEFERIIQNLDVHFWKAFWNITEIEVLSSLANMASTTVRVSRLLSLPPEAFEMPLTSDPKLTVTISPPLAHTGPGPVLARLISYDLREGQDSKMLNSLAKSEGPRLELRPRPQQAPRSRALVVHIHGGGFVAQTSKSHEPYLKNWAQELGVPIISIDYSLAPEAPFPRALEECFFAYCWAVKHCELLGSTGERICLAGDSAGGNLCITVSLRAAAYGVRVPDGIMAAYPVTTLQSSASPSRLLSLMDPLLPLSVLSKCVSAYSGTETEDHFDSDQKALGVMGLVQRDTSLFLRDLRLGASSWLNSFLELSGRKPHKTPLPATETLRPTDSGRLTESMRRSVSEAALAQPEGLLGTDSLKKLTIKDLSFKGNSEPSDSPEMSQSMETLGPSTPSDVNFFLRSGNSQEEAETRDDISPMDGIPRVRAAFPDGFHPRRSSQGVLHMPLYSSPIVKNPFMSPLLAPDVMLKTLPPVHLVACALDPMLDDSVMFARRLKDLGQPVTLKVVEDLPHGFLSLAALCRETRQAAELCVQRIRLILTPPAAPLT
Experiment: Indirect NAG assay (extinction increase at 481 nm)
Format: biochemical
Conditions: 60 min
Protocol: A typical reaction is carried out at 30° C. for 60 min, for example in 1.5 ml Eppendorf vessels or 96-hole plates. […] 180 μl of the substrate solution (20 μg/ml of phosphatidylcholine, 10 μg/ml of phosphatidylinositol, 50 μg/ml of NAG in assay buffer) are added. After a preincubation for 15 min at 30° C., 20 μl of HSL in assay buffer are pipetted in and the extinction is immediately measured (see above) at 481 nm in a cuvette photometer (0.5 ml cuvette) or microtiter plate reader. After a certain incubation time, which is variable and depends on the chosen enzyme concentration and can be between 2 and 240 minutes, in this case incubation at 30° C. for 60 min, the extinction is measured again. The increase in the extinction in the yellow region, in this case at 481 nm, is a measure of the enzyme activity.
Isolated rat fat cells are obtained from epididymal fatty tissue from untreated male rats (Wistar, 220-250 g) by collagenase treatment according to published processes. The fat cells from 10 rats are washed three times by flotation with 50 ml each of homogenization buffer ([…], pH 7.4, 0.25 M sucrose, 1 mM ethylenediamine-N,N,N′,N′-tetraacetic acid (EDTA), 1 mM dithiothreitol (DTT), 10 μg/ml of leupeptin, 10 μg/ml of antipain, 20 μg/ml of pepstatin) and finally taken up in 10 ml of homogenization buffer. The fat cells are homogenized in a Teflon-in-glass homogenizer (Braun-Melsungen) by 10 strokes at 1500 rpm and 15° C. The homogenizate is centrifuged (Sorvall SM24 tubes, 5000 rpm, 10 min, 4° C.). The […] between the overlying fatty layer and the pellet is removed and the centrifugation is repeated. The […] resulting from this is centrifuged again (Sorvall SM24 tubes, 20,000 rpm, 45 min, 4° C.). […] After incubation for 60 min at 4° C. (shake at intervals of 15 min), the batch is centrifuged (Sorvall SM24 tubes, 3000 rpm, 10 min, 4° C.). The supernatant is brought to pH 5.2 by addition of glacial acetic acid and incubated at 4° C. for 30 min. […] The suspension is dialyzed overnight at 4° C. against 25 mM TRIS/HCl, pH 7.4, 50% glycerol, 1 mM DTT, and 10 μg/ml of leupeptin, pepstatin, and antipain and then applied to a hydroxylapatite column (0.1 g per 1 ml of suspension, equilibrated with 10 mM potassium phosphate, pH 7.0, 30% glycerol, 1 mM DTT). The column is washed with four volumes of equilibration buffer at a flow rate of 20 to 30 ml/h. The HSL is eluted with a volume of equilibration buffer which contains 0.5 M potassium phosphate, then dialyzed (see above) and concentrated 5 to 10 times by ultrafiltration (Amicon Diaflo PM 10 filter) at 4° C. The partially purified HSL can be stored at −70° C. for 4 to 6 weeks.
6 mg of phosphatidylcholine and 6 mg of phosphatidylinositol are dissolved in 1 ml of chloroform each. 10 mg of NAG are dissolved in 1 ml of chloroform. […] The chloroform (225 μl total volume) is completely removed by overblowing with a stream of N2. The dried substrate can be stored at 4° C. for up to three days. For the preparation of the phospholipid vesicles/micelles having intercalated NAG (on the test day), the dried substrate is taken up in 20 ml of assay buffer (25 mM TRIS/HCl, pH 7.4; 150 mM NaCl) and two ultrasonic treatments with an ultrasonic probe (Branson Sonifier type 11, standard microtip): 1st treatment setting 2, 2×1 min, in between in each case 1 min on ice; 2nd treatment setting 4, 2×1 min, in between in each case 1 min on ice. […] Before use as a substrate (within the next 2 h), the solution is additionally incubated on ice for 15 min.
The assay is carried out at 30° C. for 60 min in 1.5 ml Eppendorf vessels or 96-hole plates.

O=C(CCCCCCCCCCCNc1ccc([N+](=O)[O-])c2nonc12)OCC(O)CO (centres unmarked) [Compound (3)]
Increase in the absorption at 481 nm (NAG 0.075 mg/ml, HSL 40 μg): 15502 ± 1077 arb. units
Increase in the absorption at 481 nm (NAG 0.1 mg/ml, HSL 5 μg): 1521 ± 119 arb. units
Increase in the absorption at 481 nm (NAG 0.1 mg/ml, HSL 20 μg): 6124 ± 577 arb. units
Increase in the absorption at 481 nm (NAG 0.1 mg/ml, HSL 40 μg): 19223 ± 1599 arb. units
Increase in the absorption at 481 nm (NAG 0.15 mg/ml, HSL 5 μg): 1983 ± 155 arb. units
Increase in the absorption at 481 nm (NAG 0.15 mg/ml, HSL 20 μg): 7544 ± 603 arb. units
Increase in the absorption at 481 nm (NAG 0.15 mg/ml, HSL 40 μg): 26730 ± 2069 arb. units
Increase in the absorption at 481 nm (NAG 0.2 mg/ml, HSL 5 μg): 2242 ± 186 arb. units
Increase in the absorption at 481 nm (NAG 0.2 mg/ml, HSL 20 μg): 8898 ± 961 arb. units
Increase in the absorption at 481 nm (NAG 0.2 mg/ml, HSL 40 μg): 31641 ± 2304 arb. units
Increase in the absorption at 481 nm (NAG 0.3 mg/ml, HSL 5 μg): 2489 ± 213 arb. units
Increase in the absorption at 481 nm (NAG 0.3 mg/ml, HSL 20 μg): 9734 ± 825 arb. units
Increase in the absorption at 481 nm (NAG 0.3 mg/ml, HSL 40 μg): 35953 ± 3355 arb. units
Increase in the absorption at 481 nm (PI/PC 0 mg/ml, PI:PC 1:1, HSL 20 μg, NAG 0.05 mg/ml): 134 ± 23 arb. units
Increase in the absorption at 481 nm (PI/PC 0 mg/ml, PI:PC 1:3, HSL 20 μg, NAG 0.05 mg/ml): 89 ± 12 arb. units
Increase in the absorption at 481 nm (PI/PC 0 mg/ml, PI:PC 3:1, HSL 20 μg, NAG 0.05 mg/ml): 173 ± 42 arb. units
Increase in the absorption at 481 nm (PI/PC 0.009 mg/ml, PI:PC 1:1, HSL 20 μg, NAG 0.05 mg/ml): 548 ± 76 arb. units
Increase in the absorption at 481 nm (PI/PC 0.009 mg/ml, PI:PC 1:3, HSL 20 μg, NAG 0.05 mg/ml): 289 ± 77 arb. units
Increase in the absorption at 481 nm (PI/PC 0.009 mg/ml, PI:PC 3:1, HSL 20 μg, NAG 0.05 mg/ml): 1437 ± 132 arb. units
Increase in the absorption at 481 nm (PI/PC 0.018 mg/ml, PI:PC 1:1, HSL 20 μg, NAG 0.05 mg/ml): 1430 ± 188 arb. units
Increase in the absorption at 481 nm (PI/PC 0.018 mg/ml, PI:PC 1:3, HSL 20 μg, NAG 0.05 mg/ml): 692 ± 94 arb. units
Increase in the absorption at 481 nm (PI/PC 0.018 mg/ml, PI:PC 3:1, HSL 20 μg, NAG 0.05 mg/ml): 2610 ± 306 arb. units
Increase in the absorption at 481 nm (PI/PC 0.075 mg/ml, PI:PC 1:1, HSL 20 μg, NAG 0.05 mg/ml): 1138 ± 125 arb. units
Increase in the absorption at 481 nm (PI/PC 0.075 mg/ml, PI:PC 1:3, HSL 20 μg, NAG 0.05 mg/ml): 1679 ± 143 arb. units
Increase in the absorption at 481 nm (PI/PC 0.075 mg/ml, PI:PC 3:1, HSL 20 μg, NAG 0.05 mg/ml): 3365 ± 402 arb. units
Increase in the absorption at 481 nm (PI/PC 0.15 mg/ml, PI:PC 1:1, HSL 20 μg, NAG 0.05 mg/ml): 745 ± 97 arb. units
Increase in the absorption at 481 nm (PI/PC 0.15 mg/ml, PI:PC 1:3, HSL 20 μg, NAG 0.05 mg/ml): 912 ± 103 arb. units
Increase in the absorption at 481 nm (PI/PC 0.15 mg/ml, PI:PC 3:1, HSL 20 μg, NAG 0.05 mg/ml): 2108 ± 256 arb. units
Increase in the absorption at 481 nm (PI/PC 0.3 mg/ml, PI:PC 1:1, HSL 20 μg, NAG 0.05 mg/ml): 335 ± 47 arb. units
Increase in the absorption at 481 nm (PI/PC 0.3 mg/ml, PI:PC 1:3, HSL 20 μg, NAG 0.05 mg/ml): 427 ± 56 arb. units
Increase in the absorption at 481 nm (PI/PC 0.3 mg/ml, PI:PC 3:1, HSL 20 μg, NAG 0.05 mg/ml): 913 ± 102 arb. units
Extinction change at 480 nm (standard conditions, 20 μg of partially purified HSL): 4000 arb. units
